Where two headings read alike, the source gives them in different places. Square brackets hold non-standard residues; d marks the D form. Peptide text beside a SMILES is read from it. * marks the point of attachment. ξ: configuration not given here. NMeF = CN[CH](Cc1ccccc1)C(=O)O; NMeA = CN[CH](C)C(=O)O; Boc = CC(C)(C)OC(=O)*; ξV = CC(C)C(N)C(=O)O; GABA = NCCCC(=O)O; ξA = CC(N)C(=O)O
Target: SARS-CoV-2 MPro (Severe acute respiratory syndrome coronavirus 2, UniProt P0DTD1)
Test: MPro activity assay (de-quenching of Edans fluorescence on cleavage of a Dabcyl/Edans peptide)
Assay type: biochemical
Conditions: for Class (MPro activity class): in-house acquired data, internal screening under standardized conditions (128 compounds); for inhibition at 25 µM: read-out: MPro inhibition; for IC50: 60 min pre-incubation, 5 μM substrate

SMILES | Class (MPro activity class) | other results
O=S(=O)(C=Cc1ccc2nonc2c1)c1ccccc1 [COV19498] | 0 (compounds with IC50 > 20 μM, percentage inhibition <80% at 20 µM or 50 μM, or percentage enzyme inhibition <50% at 10 µM were labelled as INACTIVE) | 
COc1ccc2nc(N3C(=O)C(O)=C(C(=O)c4ccc5c(c4)OCCO5)C3c3ccc(OC)c(OC)c3)sc2c1 (stereo not shown) [ADRMC155] | 0 (compounds with IC50 > 20 μM, percentage inhibition <80% at 20 µM or 50 μM, or percentage enzyme inhibition <50% at 10 µM were labelled as INACTIVE) | 
O=C(O)C(=O)NC1CCc2nc(NC(=O)c3cc(Cl)c(Cl)[nH]3)sc2C1 (stereo not shown) [Cpd 51] | 0 (compounds with IC50 > 20 μM, percentage inhibition <80% at 20 µM or 50 μM, or percentage enzyme inhibition <50% at 10 µM were labelled as INACTIVE) | activity at 25 µM (read-out: % activity MPro): 107 ± 5.7%
CC(=NNC(N)=O)c1cc2ccccc2oc1=O [COV19144] | 0 (compounds with IC50 > 20 μM, percentage inhibition <80% at 20 µM or 50 μM, or percentage enzyme inhibition <50% at 10 µM were labelled as INACTIVE) | 
[O-][n+]1onc2cc(Cl)cc(Cl)c21 [1d] |  | activity at 25 µM (read-out: MPro activity (%)): 89.3 ± 1.9%
CCOC(=O)C(=O)NC1CCc2nc(NC(=O)c3cc(Cl)c(Cl)[nH]3)sc2C1 (stereo not shown) [Cpd 50] | 0 (compounds with IC50 > 20 μM, percentage inhibition <80% at 20 µM or 50 μM, or percentage enzyme inhibition <50% at 10 µM were labelled as INACTIVE) | 
Cc1cccc(C(=O)NCc2ccccc2)c1I [COV19040] | 0 (compounds with IC50 > 20 μM, percentage inhibition <80% at 20 µM or 50 μM, or percentage enzyme inhibition <50% at 10 µM were labelled as INACTIVE) | 
COc1ccc(CNC(=O)c2ccccc2I)cc1 [COV19024] | 0 (compounds with IC50 > 20 μM, percentage inhibition <80% at 20 µM or 50 μM, or percentage enzyme inhibition <50% at 10 µM were labelled as INACTIVE) | 
Cc1[nH]c(C(=O)NC2CCc3nc(NC(=O)CC(=O)O)sc3C2)c(Cl)c1Cl (stereo not shown) [Cpd 54] | 0 (compounds with IC50 > 20 μM, percentage inhibition <80% at 20 µM or 50 μM, or percentage enzyme inhibition <50% at 10 µM were labelled as INACTIVE) | 
O=S(=O)(C=Cc1ccc2no[n+]([O-])c2c1)c1ccc(Cl)cc1 [COV19499] | 1 (Compounds with IC50 < 10 µM or with a percentage of enzyme inhibition >50% at 10 µM were labelled as ACTIVE) | 
Cc1cccc(C(N)=O)c1I [COV19036] | 0 (compounds with IC50 > 20 μM, percentage inhibition <80% at 20 µM or 50 μM, or percentage enzyme inhibition <50% at 10 µM were labelled as INACTIVE) | 
O=C(Nc1ccccc1)c1ccccc1I [COV19026] | 0 (compounds with IC50 > 20 μM, percentage inhibition <80% at 20 µM or 50 μM, or percentage enzyme inhibition <50% at 10 µM were labelled as INACTIVE) | 
Cc1ccc(-n2sc3ccccc3c2=O)cc1 [COV19015] | 1 (Compounds with IC50 < 10 µM or with a percentage of enzyme inhibition >50% at 10 µM were labelled as ACTIVE) | 
O=S(=O)(C=Cc1ccc2no[n+]([O-])c2c1)c1ccc(F)cc1 [COV19500] | 1 (Compounds with IC50 < 10 µM or with a percentage of enzyme inhibition >50% at 10 µM were labelled as ACTIVE) | 
CC(=NNC(N)=S)c1c(O)c2ccccc2oc1=O [COV19140] | 0 (compounds with IC50 > 20 μM, percentage inhibition <80% at 20 µM or 50 μM, or percentage enzyme inhibition <50% at 10 µM were labelled as INACTIVE) | 
O=S(=O)(Nc1nc2cc(Cl)c(Oc3cccc(Cl)c3Cl)cc2[nH]1)c1ccc(Br)cc1 [32d] |  | inhibition at 25 µM: 25%
[O-][n+]1onc2ccc(/C=C/[S+]([O-])c3ccccc3)cc21 (stereo not shown) [8d] |  | activity at 25 µM (read-out: MPro activity (%)): 91.6 ± 0.1%
COc1ccc(C2C(C(=O)c3ccc(OC)c(OC)c3)=C(O)C(=O)N2c2nc3ccc(Cl)cc3s2)cc1 (stereo not shown) [ADKPN163] | 0 (compounds with IC50 > 20 μM, percentage inhibition <80% at 20 µM or 50 μM, or percentage enzyme inhibition <50% at 10 µM were labelled as INACTIVE) | 
Cc1ccc2nc(N3C(=O)C(O)=C(C(=O)c4ccc5c(c4)OCCO5)C3c3ccc(O)cc3)sc2c1 (stereo not shown) [AD82] | 0 (compounds with IC50 > 20 μM, percentage inhibition <80% at 20 µM or 50 μM, or percentage enzyme inhibition <50% at 10 µM were labelled as INACTIVE) | 
CC1NC(=O)C(Cc2ccccc2)N(C)C(=O)CNC(=O)C(Cc2ccccc2)N(C)C1=O (stereo not shown) [COV19097] (cyclo(G[NMeF]A[NMeF]); configuration not given here) | 0 (compounds with IC50 > 20 μM, percentage inhibition <80% at 20 µM or 50 μM, or percentage enzyme inhibition <50% at 10 µM were labelled as INACTIVE) | 
O=C(/C=C/c1ccc2ccccc2c1)c1ccccc1O [25d] |  | IC50: 0.5 µM
COc1ccc(C2C(C(=O)c3ccc(OC)c(OC)c3)=C(O)C(=O)N2c2nc3ccc(OC)cc3s2)cc1 (stereo not shown) [ADKPN162] | 0 (compounds with IC50 > 20 μM, percentage inhibition <80% at 20 µM or 50 μM, or percentage enzyme inhibition <50% at 10 µM were labelled as INACTIVE) | 
[O-][n+]1onc2ccc(/C=C\c3ccc4c(c3)OCO4)cc21 [15d] |  | activity at 25 µM (read-out: MPro activity (%)): 67.4 ± 1.8%
Nc1nc2nc(NCCCN3CCOCC3)ncc2cc1-c1c(Cl)cccc1Cl [ZVR130] | 0 (compounds with IC50 > 20 μM, percentage inhibition <80% at 20 µM or 50 μM, or percentage enzyme inhibition <50% at 10 µM were labelled as INACTIVE) | 

SMILES | Class (MPro activity class) | other results
O=C(NCc1ccc(C(F)(F)F)cc1)c1ccccc1I [COV19032] | 0 (compounds with IC50 > 20 μM, percentage inhibition <80% at 20 µM or 50 μM, or percentage enzyme inhibition <50% at 10 µM were labelled as INACTIVE) | 
Cc1cccc2c(=O)n(Cc3ccccc3)sc12 [COV19007] | 0 (compounds with IC50 > 20 μM, percentage inhibition <80% at 20 µM or 50 μM, or percentage enzyme inhibition <50% at 10 µM were labelled as INACTIVE) | 
Cc1nc(N)sc1C(=O)N(Cc1ccccc1)Cc1ccccc1 [ZVR-119] | 0 (compounds with IC50 > 20 μM, percentage inhibition <80% at 20 µM or 50 μM, or percentage enzyme inhibition <50% at 10 µM were labelled as INACTIVE) | 
O=c1[nH]sc2ccccc12 [COV19001] | 1 (Compounds with IC50 < 10 µM or with a percentage of enzyme inhibition >50% at 10 µM were labelled as ACTIVE) | 
[O-][n+]1onc2ccc(/C=C\Sc3ccc(F)cc3)cc21 [9d] |  | activity at 25 µM (read-out: MPro activity (%)): 81.4 ± 21.5%
COc1ccc(Cn2sc3ccccc3c2=O)cc1 [COV19009] | 1 (Compounds with IC50 < 10 µM or with a percentage of enzyme inhibition >50% at 10 µM were labelled as ACTIVE) | 
O=C(C1=C(O)C(=O)N(c2nc3ccccc3s2)C1c1ccc(F)cc1)c1ccc2c(c1)OCCO2 (stereo not shown) [ADKPN161] | 0 (compounds with IC50 > 20 μM, percentage inhibition <80% at 20 µM or 50 μM, or percentage enzyme inhibition <50% at 10 µM were labelled as INACTIVE) | 
O=S(=O)(C=Cc1ccc2no[n+]([O-])c2c1)c1ccccc1 [COV19497] | 1 (Compounds with IC50 < 10 µM or with a percentage of enzyme inhibition >50% at 10 µM were labelled as ACTIVE) | 
COC(=O)[C@@H](Cc1ccccc1)NC(=O)C(C)NC(=O)[C@@H](NC(=O)C(NC(=O)CCCNC(=O)OC(C)(C)C)C(C)C)C(C)C (stereo partly shown) [2a] ({Boc-GABA}-[ξV]V[ξA][dF]-OMe) |  | IC50: 32.1 ± 1.4 µM
CCNC(=S)NN=C(C)c1c(O)c2ccccc2oc1=O [COV19142] | 0 (compounds with IC50 > 20 μM, percentage inhibition <80% at 20 µM or 50 μM, or percentage enzyme inhibition <50% at 10 µM were labelled as INACTIVE) | 
Cc1ccc(-n2sc3cc(Cl)cc(C)c3c2=O)cc1 [COV19018] | 1 (Compounds with IC50 < 10 µM or with a percentage of enzyme inhibition >50% at 10 µM were labelled as ACTIVE) | 
COc1ccc(S(=O)(=O)Nc2nc3cc(Cl)c(Oc4cccc(Cl)c4Cl)cc3[nH]2)cc1 [30d] |  | inhibition at 25 µM: 42%
O=C(/C=C/c1ccc2ccccc2c1)c1ccc2ccccc2c1O [26d] |  | inhibition at 25 µM: 45%
Nc1ncc2cc(-c3ccc4c(c3)OCO4)c(N)nc2n1 [ZVR108] | 0 (compounds with IC50 > 20 μM, percentage inhibition <80% at 20 µM or 50 μM, or percentage enzyme inhibition <50% at 10 µM were labelled as INACTIVE) | 
Cc1cc(Cl)cc2sn(Cc3ccccc3)c(=O)c12 [COV19006] | 1 (Compounds with IC50 < 10 µM or with a percentage of enzyme inhibition >50% at 10 µM were labelled as ACTIVE) | 
O=C1/C(=C/C=C/c2cccs2)CC/C1=C\C=C\c1cccs1 [37d] |  | inhibition at 25 µM: 20 to 40%
Cc1ccc2nc(N3C(=O)C(O)=C(C(=O)c4ccc5c(c4)OCCO5)C3c3ccc(F)cc3)sc2c1 (stereo not shown) [ADRMC154] | 0 (compounds with IC50 > 20 μM, percentage inhibition <80% at 20 µM or 50 μM, or percentage enzyme inhibition <50% at 10 µM were labelled as INACTIVE) | 
O=C(C1=C(O)C(=O)N(c2nc3ccc(Cl)cc3s2)C1c1ccccc1)c1ccc2c(c1)OCCO2 (stereo not shown) [ADRMC159] | 0 (compounds with IC50 > 20 μM, percentage inhibition <80% at 20 µM or 50 μM, or percentage enzyme inhibition <50% at 10 µM were labelled as INACTIVE) | 
CC(C)(C)OC(=O)NC1CCCN(CC(=O)NC(Cc2ccccc2)C(=O)Nc2nc3cc(Sc4ccccc4)ccc3[nH]2)C1=O (stereo not shown) [3a] |  | activity at 25 µM (read-out: MPro activity (%)): 64.9 ± 11.6%
CCOC(=O)c1ncc(-n2sc3ccccc3c2=O)s1 [COV19019] | 1 (Compounds with IC50 < 10 µM or with a percentage of enzyme inhibition >50% at 10 µM were labelled as ACTIVE) | 
CC1C(=O)NC(Cc2ccccc2)C(=O)N(C)C(Cc2ccccc2)C(=O)NCC(=O)N1C (stereo not shown) [COV19080] (cyclo(G[NMeA]F[NMeF]); configuration not given here) | 0 (compounds with IC50 > 20 μM, percentage inhibition <80% at 20 µM or 50 μM, or percentage enzyme inhibition <50% at 10 µM were labelled as INACTIVE) | 
CNC(=S)NN=C(C)c1c(O)c2ccccc2oc1=O [COV19141] | 0 (compounds with IC50 > 20 μM, percentage inhibition <80% at 20 µM or 50 μM, or percentage enzyme inhibition <50% at 10 µM were labelled as INACTIVE) | 
CCCOC(=O)C(Cc1ccccc1)NC(=O)CN1CCCC(NC(=O)OC(C)(C)C)C1=O (stereo not shown) [COV19185] | 0 (compounds with IC50 > 20 μM, percentage inhibition <80% at 20 µM or 50 μM, or percentage enzyme inhibition <50% at 10 µM were labelled as INACTIVE) | 
COc1ccc(C2C(C(=O)c3ccc4c(c3)OCCO4)=C(O)C(=O)N2c2nc3ccc(C)cc3s2)cc1OC (stereo not shown) [ADRMC153] | 0 (compounds with IC50 > 20 μM, percentage inhibition <80% at 20 µM or 50 μM, or percentage enzyme inhibition <50% at 10 µM were labelled as INACTIVE) | 
